From patent US10323018B2 (Millennium Pharmaceuticals, Inc., priority 2015, dated 2019) come the findings set out here.

Assay [1] relates to PC3 cells. Kind of assay: PC3 growth inhibition (Cell-titer glo, 72 hours). It is filed as cell-based. As to conditions: Homo sapiens, PC-3, 72 h, read-out: Percent Viability, PC3 cells, compound concentration 1.667 μM, 72 hours. The procedure, abridged:
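After 72 h compound treatment in AIM serum-free medium (37 °C, 5% CO2), viability of overnight-plated PC3 cells (8×10^4 cells/ml, RPMI1640-maintained) is read by CellTiter-Glo luminescence versus DMSO. Curves give GI50, LD50 or single-concentration % remaining viability.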

In assay [2] the target is hNAMPT protein (Homo sapiens (Human), UniProt P43490). As to the kind of experiment: NAMPT enzyme assay (TR-FRET/HTRF with BodiPY ligand). The format is binding. As to conditions: for inhibition at 1 µM: NAMPT inhibition at compound concentration 1 μM, read-out: Percent Inhibition; for IC50: NAMPT inhibition, IC50 range class. The procedure, abridged:
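Ligand displacement by TR-FRET: BodiPY emission (520 nm) over terbium (486 nm) after 320 nm excitation. Compound, BodiPY ligand, hNAMPT and anti-6His-Tb incubated 1 h at room temperature, dark, at pH 7.5. Percent inhibition computed versus DMSO; concentration-response curves fitted for IC50.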
On the technique in general: In TR-FRET formats the signal depends on donor and acceptor labels being close together.

hNAMPT protein, sequence (P43490 whole entry): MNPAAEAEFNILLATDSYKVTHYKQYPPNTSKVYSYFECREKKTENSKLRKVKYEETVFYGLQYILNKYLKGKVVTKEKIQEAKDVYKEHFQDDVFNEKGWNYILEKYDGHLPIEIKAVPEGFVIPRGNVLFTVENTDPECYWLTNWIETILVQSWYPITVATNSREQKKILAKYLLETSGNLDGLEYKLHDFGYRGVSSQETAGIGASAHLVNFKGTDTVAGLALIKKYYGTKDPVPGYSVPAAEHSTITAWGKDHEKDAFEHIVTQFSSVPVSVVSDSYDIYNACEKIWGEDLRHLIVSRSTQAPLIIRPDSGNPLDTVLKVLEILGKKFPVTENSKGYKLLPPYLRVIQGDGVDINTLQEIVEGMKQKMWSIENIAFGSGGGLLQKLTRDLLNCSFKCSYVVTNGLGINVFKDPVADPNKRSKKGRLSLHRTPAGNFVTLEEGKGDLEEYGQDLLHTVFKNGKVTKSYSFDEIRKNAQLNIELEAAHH

The term inhibition denotes the drop in the measured response relative to a control, in per cent. One may read the IC50 as the concentration needed to halve the response being measured. Higher therefore signals weaker potency. `CCOc1cc(-c2ccc(=O)n(C)c2)nc2cc(C(=O)NCCCc3[nH]nnc3C)ccc12` [Compound I-97, 4-ethoxy-2-(1-methyl-6-oxo-1,6-dihydropyridin-3-yl)-N-[3-(4-methyl-1H-1,2,3-triazol-5-yl)propyl]quinoline-7-carboxamide]: in assay [1], the viability at 1.667 µM turned out to be 2%. In assay [2], the inhibition at 1 µM is greater than 99% and the IC50 lay within 10 to 50 nM.
The like results for `CCOc1cc(-c2ccc(=O)n(C)c2)nc2cc(C(=O)NCCc3c[nH]nc3C)ccc12` [Compound I-98, 4-ethoxy-2-(1-methyl-6-oxo-1,6-dihydropyridin-3-yl)-N-[2-(3-methyl-1H-pyrazol-4-yl)ethyl]quinoline-7-carboxamide] were, in that order, 1%, 99% and 50 to 100 nM.
With `CCOc1cc(-c2ccnc(C)c2)nc2cc(C(=O)NCc3nc4cnccc4[nH]3)ccc12` [Compound I-99, 4-ethoxy-N-(1H-imidazo[4,5-c]pyridin-2-ylmethyl)-2-(2-methylpyridin-4-yl)quinoline-7-carboxamide], in assay [1], the viability at 1.667 µM came to 2%. Besides, in assay [2], the inhibition at 1 µM was greater than 99% and the IC50 is less than 10 nM.
The like results for `CCOc1cc(-c2ccnc(OC)c2)nc2cc(C(=O)NCCc3c[nH]nc3C)ccc12` [Compound I-100, 4-ethoxy-2-(2-methoxypyridin-4-yl)-N-[2-(3-methyl-1H-pyrazol-4-yl)ethyl]quinoline-7-carboxamide] were, in that order, 2%, 92% and 50 to 100 nM.
Taken in the same sequence, the figures for `CCOc1cc(-c2ccc(OC)nc2)nc2cc(C(=O)NCCCc3nnc[nH]3)ccc12` [Compound I-101, 4-ethoxy-2-(6-methoxypyridin-3-yl)-N-[3-(4H-1,2,4-triazol-3-yl)propyl]quinoline-7-carboxamide] were 2%, 96% and 10 to 50 nM.
On to `CCOc1cc(-c2ccc(OC)nc2)nc2cc(C(=O)NCCCc3cnn[nH]3)ccc12` [Compound I-102, 4-ethoxy-2-(6-methoxypyridin-3-yl)-N-[3-(1H-1,2,3-triazol-5-yl)propyl]quinoline-7-carboxamide], for which the viability at 1.667 µM in assay [1] came out at 2%. Besides, in assay [2], the inhibition at 1 µM turned out to be 99% and the IC50 was less than 10 nM.
Taken in the same sequence, the figures for `CCOc1cc(-c2ccc(C)nc2OC)nc2cc(C(=O)NCCCc3cnn[nH]3)ccc12` [Compound I-103, 4-ethoxy-2-(2-methoxy-6-methylpyridin-3-yl)-N-[3-(1H-1,2,3-triazol-5-yl)propyl]quinoline-7-carboxamide] were 2%, greater than 99% and 10 to 50 nM.
The like results for `CCOc1cc(-c2ccc(C)nc2OC)nc2cc(C(=O)NCCCc3ccn[nH]3)ccc12` [Compound I-104, 4-ethoxy-2-(2-methoxy-6-methylpyridin-3-yl)-N-[3-(1H-pyrazol-5-yl)propyl]quinoline-7-carboxamide] were, in that order, 2%, 95% and 10 to 50 nM.
The like results for `CCOc1cc(-c2cccnc2OC)nc2cc(C(=O)NCCCc3cnn[nH]3)ccc12` [Compound I-105, 4-ethoxy-2-(2-methoxypyridin-3-yl)-N-[3-(1H-1,2,3-triazol-5-yl)propyl]quinoline-7-carboxamide] were, in that order, 2%, 100% and 10 to 50 nM.
For the compound `CCOc1cc(-c2ccc(F)cc2OC)nc2cc(C(=O)NCCCc3[nH]nnc3C)ccc12` [Compound I-106, 4-ethoxy-2-(4-fluoro-2-methoxyphenyl)-N-[3-(4-methyl-1H-1,2,3-triazol-5-yl)propyl]quinoline-7-carboxamide], the viability at 1.667 µM in assay [1] came to 2%. Besides, in assay [2], the inhibition at 1 µM stood at 100% and the IC50 lay in the range of 10 to 50 nM.
